Assay results taken from US20130079312A1, “Method of Treating Hair Loss Due to Systemic Chemotherapy” (ELORAC, LTD., priority 2011, published 2013).

Experiment: Topical vasoconstrictor formulation applied to hair-bearing areas of patients receiving cancer chemotherapy; hair loss
Assay type: in vivo

SMILES | hair loss (Oxymetazoline 2.0% by weight in hydroethanolic foam, scalp and eyebrows, 60 minutes prior to intravenous nitrogen mustard, then three times daily for two week intervals) | hair loss (scalp lotion containing 0.01% naphazoline, 30 minutes prior to and 15 minutes after each course of intravenous docetaxel, breast cancer patients)
Cc1cc(C(C)(C)C)c(O)c(C)c1CC1=NCCN1 [Oxymetazoline, oxymetazoline] | prevention of major hair loss | –
c1ccc2c(CC3=NCCN3)cccc2c1 [naphazoline] | – | lose little, if any, of their hair
